Where a chain is given by its changes, count along the chain named. Read-outs that look alike come from different tables or passages of the source.
Key:
TbAQP2 = target: T1, TbAQP2 (Trypanosoma brucei brucei, UniProt Q6ZXT3)
T1 sequence (Q6ZXT3 1-312): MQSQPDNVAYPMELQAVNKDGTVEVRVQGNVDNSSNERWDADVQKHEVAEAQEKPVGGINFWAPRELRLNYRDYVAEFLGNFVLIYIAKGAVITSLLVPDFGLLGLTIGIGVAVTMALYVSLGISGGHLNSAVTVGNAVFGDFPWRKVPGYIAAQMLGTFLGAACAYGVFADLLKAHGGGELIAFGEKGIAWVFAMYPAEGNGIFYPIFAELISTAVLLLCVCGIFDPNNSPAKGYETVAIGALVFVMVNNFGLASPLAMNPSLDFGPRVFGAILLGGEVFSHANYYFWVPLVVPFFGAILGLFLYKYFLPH

TbAQP2 Asp265Ala = TbAQP2 Asp265Ala (Trypanosoma brucei brucei, UniProt Q6ZXT3, D265A); assay: cell-based; settings: read-out: IC50, pentamidine inhibition of TbAQP2 Asp265Ala
TbAQP2 Leu264Arg = target: T2, TbAQP2 Leu264Arg (Trypanosoma brucei brucei, UniProt Q6ZXT3, L264R); type: cell-based
T2 sequence (Q6ZXT3 1-312 L264R): T1 sequence (Q6ZXT3 1-312) with L264R

## NCC(O)CO (centres unmarked) [3-aminopropane-1,2-diol]
TbAQP2; pH 9.2
  rate of passage through TbAQP2 relative to glycerol: two thirds the rate of glycerol

## N=CN [formamidine]
TbAQP2; not told
  permeability of TbAQP2 for small cations: impermeable

## N=C(N)c1ccc(OCCCCCOc2ccc(C(=N)N)cc2)cc1 [pentamidine]
TbAQP2 Asp265Ala; pH 2.5
  IC50: 5.8 µM
TbAQP2 Asp265Ala; pH 7.2
  IC50: 4.5 µM
TbAQP2 Leu264Arg
  inhibition of TbAQP2 Leu264Arg: failed to inhibit
